Values of other authors as cited in article PMC8287861 (Frontiers in Microbiology, 2021).
Converted amounts (≈) assume the structure as drawn. Where two headings read alike, the source gives them in different places. One block for each compound: values may come before it.

What was measured:
[1] = system: Pseudomonas aeruginosa; design: method as in Lomovskaya et al. (2021); conditions: challenge panel, QPX7728 at 8 μg/ml, ref Lomovskaya et al. (2021)
[2] = system: Pseudomonas aeruginosa; design: method as in Lomovskaya et al. (2021); conditions: panel reflecting current MIC distribution (N = 500); QPX7728 at 8 μg/ml; ref Lomovskaya et al. (2021)
[3] = system: carbapenem resistant Acinetobacter baumannii; conditions: ref Nelson et al., 2020b
[4] = system: KPC-producing strains of Klebsiella pneumoniae and blaKPC mutants; design: method as in Nelson et al., 2019; conditions: ref Nelson et al., 2019
[5] = system: β-lactamases; conditions: ref Hecker et al. (2020)
[6] = system: Enterobacterales producing ESBLs and carbapenemases; design: method as in Rubio-Aparicio et al., 2019; conditions: ref Rubio-Aparicio et al., 2019
[7] = 275 clinical isolates, meropenem alone

MIC50 ([1]; All (N = 290)): 4 µg/mL (≈ 6 µM)
MIC90 ([1]; All (N = 290)): >64 µg/mL
MIC50 ([1]; MBL (N = 61)): >64 µg/mL
MIC90 ([1]; MBL (N = 61)): >64 µg/mL
MIC50 ([1]; No MBL (N = 229)): 2 µg/mL (≈ 3 µM)
MIC90 ([1]; No MBL (N = 229)): >64 µg/mL
MIC50 [2]: 0.5 µg/mL (≈ 0.75 µM)
MIC90 [2]: 4 µg/mL (≈ 6 µM)
SMILES: Cn1c(N)c(NC(=O)NCCN)c[n+]1CC1=C(C(=O)O)N2C(=O)[C@@H](NC(=O)/C(=N\OC(C)(C)C(=O)[O-])c3nsc(N)n3)[C@H]2SC1 [Ceftolozane, ceftolozane]

SMILES: C[C@@H](O)[C@H]1C(=O)N2C(C(=O)O)=C(S[C@@H]3CN[C@H](C(=O)N(C)C)C3)[C@H](C)[C@H]12 [Meropenem, meropenem]
MIC50 ([1]; All (N = 290)): 16 µg/mL (≈ 41.7 µM)
MIC90 ([1]; All (N = 290)): >64 µg/mL
MIC50 ([1]; MBL (N = 61)): >64 µg/mL
MIC90 ([1]; MBL (N = 61)): >64 µg/mL
MIC50 ([1]; No MBL (N = 229)): 16 µg/mL (≈ 41.7 µM)
MIC90 ([1]; No MBL (N = 229)): 64 µg/mL (≈ 167 µM)
MIC50 [2]: 0.5 µg/mL (≈ 1.3 µM)
MIC90 [2]: 16 µg/mL (≈ 41.7 µM)
MIC50 [3, 7]: 64 µg/mL (≈ 167 µM)
MIC90 [3, 7]: > 64 µg/mL
MIC90 of meropenem ([3]; with QPX7728 at 4 μg/ml): 8 µg/mL
MIC90 of meropenem ([3]; with QPX7728 at 8 μg/ml): 4 µg/mL
increase in meropenem potency ([3]; with increasing concentrations of QPX7728 (1–16 μg/ml)): 8–16 fold
MIC ([4]; KP1252, KPC-3, TEM-1, SHV-11/FL): 64 µg/mL (≈ 167 µM)
MIC ([4]; KPM3191, KPC-3:: DDK duplication at aa#831 (KPC-29)): 4 µg/mL (≈ 10.4 µM)
MIC ([4]; KPM3192, KPC-3:: D179Y (KPC-31)): 0.5 µg/mL (≈ 1.3 µM)
MIC ([4]; KPM3200, KPC-3::duplication of EAVI (aa#278)): 64 µg/mL (≈ 167 µM)
MIC ([4]; KPM3205, KPC-3 ::duplication of KKDY (aa#273)): 16 µg/mL (≈ 41.7 µM)
MIC ([4]; KPM3210, KPC-2::D179N): 4 µg/mL (≈ 10.4 µM)
MIC ([4]; KPM3212, deletion of ELNSAI at aa#497): 1 µg/mL (≈ 2.61 µM)
MIC ([4]; KPM3213, KPC-2::D179Y (KPC-31), selected from KP1099): 4 µg/mL (≈ 10.4 µM)
MIC ([4]; KPM3214, KPC-2::D179A): 2 µg/mL (≈ 5.22 µM)
MIC ([4]; KPM3493, KPC-3::duplication of EL at aa#164 (KPC-25)): 1 µg/mL (≈ 2.61 µM)
MIC ([4]; KPM3494, KPC-3::R167S): 32 µg/mL (≈ 83.4 µM)
MIC ([4]; KPM3495, KPC-3::A175V): 32 µg/mL (≈ 83.4 µM)
MIC ([4]; KPM3511, KPC-3::P174Q): 4 µg/mL (≈ 10.4 µM)
MIC ([4]; KPM3512, KPC-3:: P174L): 8 µg/mL (≈ 20.9 µM)

SMILES: CSCC(=O)N[C@H]1Cc2ccc(F)c(C(=O)O)c2OB1O [RPX7323]
β-lactamase inhibition (in words) [5]: capable of potently inhibiting serine enzymes from classes A-D

SMILES: COc1ccc2c(c1C(=O)O)OB(O)[C@@H](Sc1nncs1)C2 [RPX7546]
β-lactamase inhibition (in words) [5]: improved potency against MBLs

MIC50 ([6]; All Enterobacterales (N = 972)): 0.25 µg/mL (≈ 0.652 µM)
MIC90 ([6]; All Enterobacterales (N = 972)): > 64 µg/mL
MIC50 ([6]; CRE KPC (N = 292)): 64/>64 μg/ml
MIC90 ([6]; CRE KPC (N = 292)): 64/>64 μg/ml
MIC50 ([6]; CRE MBL (N = 226)): 32 µg/mL (≈ 83.4 µM)
MIC90 ([6]; CRE MBL (N = 226)): > 64 µg/mL
MIC50 ([6]; CRE OXA-48 (N = 47)): 32 µg/mL (≈ 83.4 µM)
MIC90 ([6]; CRE OXA-48 (N = 47)): 64 µg/mL (≈ 167 µM)
MIC50 ([6]; ESBLs, no CRE (N = 371)): ≤ 0.06 µg/mL
MIC90 ([6]; ESBLs, no CRE (N = 371)): 0.5 µg/mL (≈ 1.3 µM)
MIC50 ([6]; Non-CP CRE): 8 µg/mL (≈ 20.9 µM)
MIC90 ([6]; Non-CP CRE): 16 µg/mL (≈ 41.7 µM)
SMILES: C[C@@H](O)[C@H]1C(=O)N2C(C(=O)O)=C(SC3CN(C4=NCCS4)C3)[C@H](C)[C@H]12 [Tebipenem]
